Test results reported in ChEMBL document CHEMBL3102830, “Involvement of apoptosis and autophagy in the death of RPMI 8226 multiple myeloma cells by two enantiomeric sigma receptor ligands” (Bioorg Med Chem, 2014).
pIC50, pKi: −log10 of the molar value. Blank lines part the entries; values can stand above or below the compound they belong to. Active and inactive are the calls of the source. The rule behind the calls is not given here.

Legend:
RPMI-8226 [1] = assay: Induction of apoptosis in human RPMI8226 cells assessed as chromatin condensation at 23 uM after 24 to 48 hrs by DAPI staining-based fluorescence microscopic analysis; assay type: functional, cell-based
RPMI-8226 [2] = assay: Induction of reactive oxygen species generation in human RPMI8226 cells at 23 uM after 0.5 to 24 hrs by DCFDA dye-based flow cytometric analysis; assay type: functional, cell-based
RPMI-8226 [3] = assay: Induction of autophagy in human RPMI8226 cells assessed as p62 protein expression at 23 uM after 6 to 96 hrs by Western blotting analysis; assay type: functional, cell-based
RPMI-8226 [4] = assay: Induction of apoptosis in human RPMI8226 cells assessed as early apoptotic cells at 23 uM after 48 hrs by annexin V-FITC/propidium iodide staining-based flow cytometric analysis; assay type: functional, cell-based
RPMI-8226 [5] = assay: Selectivity ratio of Ki for sigma-2 receptor in human RT4 cell homogenates to Ki for sigma-1 receptor in human RPMI8226 cells; assay type: cell-based
RPMI-8226 [6] = assay: Induction of apoptosis in human RPMI8226 cells assessed as caspase-8 activation at 23 uM by flow cytometric analysis in presence of FITC-IETD-FMK; assay type: functional, cell-based; details: TDE = time-dependent effect
RPMI-8226 [7] = assay: Induction of apoptosis in human RPMI8226 cells assessed as increase in apoptotic cells at 23 uM after 24 to 48 hrs by annexin V-FITC/propidium iodide staining-based flow cytometric analysis; assay type: functional, cell-based
RPMI-8226 [8] = assay: Induction of autophagy in human RPMI8226 cells assessed as […] protein expression at 23 uM after 48 hrs by Western blotting analysis in presence of wortmannin; assay type: functional, cell-based
[9] = target: Sigma non-opioid intracellular receptor 1 (Homo sapiens, UniProt Q99720); assay: Displacement of [3H]-(+)-pentazocine from sigma-1 receptor in human RPMI8226 cells; assay type: cell-based, RPMI-8226
RPMI-8226 [10] = assay: Induction of autophagy in human RPMI8226 cells assessed as p62 protein expression at 23 uM after 48 hrs by Western blotting analysis in presence of 3-methyladenine; assay type: functional, cell-based
RPMI-8226 [11] = assay: Induction of autophagy in human RPMI8226 cells assessed as […] at 23 uM by Western blotting analysis; assay type: functional, cell-based; details: TDE = time-dependent effect
RPMI-8226 [12] = assay: Induction of apoptosis in human RPMI8226 cells assessed as early apoptotic cells at 23 uM after 48 hrs by annexin V-FITC/propidium iodide staining-based flow cytometric analysis in presence of wortmannin; assay type: functional, cell-based
RPMI-8226 [13] = assay: Induction of lipid peroxidation in human RPMI8226 cells at 23 uM after 5 to 24 hrs by flow cytometric analysis in presence of alpha-tocopherol; assay type: functional, cell-based
RPMI-8226 [14] = assay: Induction of apoptosis in human RPMI8226 cells assessed as early/late apoptotic cells at 23 uM after 48 hrs by annexin V/propidium iodide staining-based flow cytometric analysis in presence of alpha-tocopherol; assay type: functional, cell-based
[15] = target: Sigma non-opioid intracellular receptor 1 (Cavia porcellus, UniProt Q60492); assay: Displacement of [3H]-(+)-pentazocine from sigma-1 receptor in guinea pig brain homogenates; assay type: tissue-based
[16] = Selectivity ratio of Ki for sigma-2 receptor in rat liver homogenates to Ki for sigma-1 receptor in guinea pig brain homogenates; assay type: tissue-based
RPMI-8226 [17] = assay: Induction of apoptosis in human RPMI8226 cells assessed as early apoptotic cells at 23 uM after 24 to 48 hrs by annexin V/propidium iodide staining-based flow cytometric analysis in presence of alpha-tocopherol; assay type: functional, cell-based
RPMI-8226 [18] = assay: Cytotoxicity against human RPMI8226 cells assessed as cell viability after 72 hrs by MTT assay; assay type: functional, cell-based; details: for pIC50: RPMI-8226, 72 h
RPMI-8226 [19] = assay: Induction of apoptosis in human RPMI8226 cells assessed as caspase-9 activation at 23 uM by flow cytometric analysis in presence of […]; assay type: functional, cell-based; details: TDE = time-dependent effect
[20] = Displacement of [3H]-DTG from sigma-2 receptor in human RT4 cell homogenates in presence of (+)-pentazocine; assay type: tissue-based; details: rt-4
RPMI-8226 [21] = assay: Induction of autophagy in human RPMI8226 cells assessed as p62 protein level at 23 uM after 6 to 96 hrs by Western blotting analysis in presence of alpha-tocopherol; assay type: functional, cell-based
RPMI-8226 [22] = assay: Induction of autophagy in human RPMI8226 cells assessed as […] protein expression at 23 uM after 48 hrs by Western blotting analysis in presence of 3-methyladenine; assay type: functional, cell-based
RPMI-8226 [23] = assay: Induction of apoptosis in human RPMI8226 cells at 23 uM after 6 hrs by annexin V-FITC/propidium iodide staining-based flow cytometric analysis; assay type: functional, cell-based
[24] = Displacement of [3H]-DTG from sigma-2 receptor in rat liver homogenates in presence of (+)-pentazocine; assay type: tissue-based
HL-60 = assay: Cytotoxicity against human HL60 cells assessed as cell viability at 20 uM after 72 hrs by MTT assay; assay type: functional, cell-based
RPMI-8226 [25] = assay: Induction of apoptosis in human RPMI8226 cells assessed as decrease in mitochondrial membrane potential at 23 uM by JC-1 staining-based flow cytometric analysis; assay type: functional, cell-based; details: TDE = time-dependent effect
RPMI-8226 [26] = assay: Induction of autophagy in human RPMI8226 cells assessed as p62 protein expression at 23 uM after 48 hrs by Western blotting analysis in presence of wortmannin; assay type: functional, cell-based
RPMI-8226 [27] = assay: Induction of apoptosis in human RPMI8226 cells assessed as caspase-3 activation at 23 uM by flow cytometric analysis in presence of […]; assay type: functional, cell-based; details: TDE = time-dependent effect
RPMI-8226 [28] = assay: Induction of autophagy in human RPMI8226 cells assessed as […] protein level at 23 uM after 6 to 96 hrs by Western blotting analysis in presence of alpha-tocopherol; assay type: functional, cell-based
RPMI-8226 [29] = assay: Induction of lipid peroxidation in human RPMI8226 cells at 23 uM after 5 to 24 hrs by flow cytometric analysis; assay type: functional, cell-based
[30] = Binding affinity to sigma-2 receptor in human MCF7 cells; assay type: cell-based

Sigma non-opioid intracellular receptor 1 (Homo sapiens, UniProt Q99720), sequence (Q99720 whole entry): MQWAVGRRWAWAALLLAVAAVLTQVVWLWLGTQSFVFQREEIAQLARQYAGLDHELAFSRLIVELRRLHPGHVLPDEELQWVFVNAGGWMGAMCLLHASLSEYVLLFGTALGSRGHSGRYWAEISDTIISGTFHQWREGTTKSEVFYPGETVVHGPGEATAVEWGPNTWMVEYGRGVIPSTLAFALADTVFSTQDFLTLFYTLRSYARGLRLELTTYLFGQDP
Sigma non-opioid intracellular receptor 1 (Cavia porcellus, UniProt Q60492), sequence (Q60492 whole entry): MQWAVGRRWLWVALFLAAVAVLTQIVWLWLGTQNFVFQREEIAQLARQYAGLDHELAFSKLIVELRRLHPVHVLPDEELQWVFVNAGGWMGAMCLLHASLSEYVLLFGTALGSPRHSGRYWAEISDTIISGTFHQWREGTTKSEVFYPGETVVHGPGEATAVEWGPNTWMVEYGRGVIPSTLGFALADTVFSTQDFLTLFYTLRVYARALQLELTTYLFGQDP

pKi [9]: 7.54 | pKi [15]: 8.11 | Ratio Ki [16]: 4.5 | pKi [24]: 7.42
Structure (SMILES): OCC[C@@H]1CN(CC2CCCCC2)CCN1Cc1ccc(-c2ccccc2)cc1
Activity (RPMI-8226 [1]): Active | Activity (RPMI-8226 [2]): inactive | Activity (RPMI-8226 [3]): inactive | Activity (RPMI-8226 [4]): Active | Ratio Ki (RPMI-8226 [5]): 1.3 | Activity (RPMI-8226 [6]): tde | Activity (RPMI-8226 [7]): Active | Activity (RPMI-8226 [8]): Active | Activity (RPMI-8226 [10]): inactive | Activity (RPMI-8226 [11]): tde | Activity (RPMI-8226 [12]): Active | Activity (RPMI-8226 [13]): inactive | Activity (RPMI-8226 [14]): inactive | Activity (RPMI-8226 [17]): inactive | Activity (RPMI-8226 [18]): Dose-dependent effect | pIC50 (RPMI-8226 [18]): 4.88 | Activity (RPMI-8226 [19]): tde | pKi [20]: 7.41 | Activity (RPMI-8226 [21]): inactive | Activity (RPMI-8226 [22]): Active | Activity (RPMI-8226 [23]): inactive | Activity (HL-60): inactive | Activity (RPMI-8226 [25]): tde | Activity (RPMI-8226 [26]): inactive | Activity (RPMI-8226 [27]): tde | Activity (RPMI-8226 [28]): inactive | Activity (RPMI-8226 [29]): Active

Structure (SMILES): COc1cccc2c1CCCC2CCCN1CCN(C2CCCCC2)CC1 (stereo not drawn)
pKi [30]: 9.55 | pIC50 (RPMI-8226 [18]): 5.03
